Experimental findings from patent US20210386367A1, “DEVICES AND SYSTEMS FOR GASTROINTESTINAL MICROBIOME DETECTION AND MANIPULATION” (Progenity, Inc., priority 2018, published 2021) are described below.

In brackets after ≈: the same amount, converted by molar mass. Read-outs that look alike come from different tables or passages of the source.

For orientation: MIC means the lowest concentration found to suppress growth. For orientation: MIC50 means an inhibitory concentration at the 50% level, which refers to growth in some studies and to a panel of isolates in others. Low values mean higher susceptibility, high ones lower susceptibility. By MIC90 is commonly meant the lowest concentration that inhibits either 90% of growth or 90% of the strains tested, depending on the study. Higher therefore signals weaker potency.

One assay concerns B. fragilis ATCC 25285. Put plainly: Broth microdilution MIC (time-kill study). The assay is classed as cell-based, Bacteroides fragilis. As to conditions: B. fragilis MMX 123 ATCC 25285. (In broth dilution the organism is exposed to a series of concentrations in liquid medium.)
For a further assay, the system named is S. pyogenes ATCC 49399. Put plainly: Broth microdilution MIC (time-kill study). The assay is classed as cell-based, Streptococcus pyogenes. The note with it: S. pyogenes ATCC 49399.
Assay [1] deals with Streptococcus spp. spontaneous mutants. Put plainly: organism not typed. The assay is classed as cell-based. Summed up:
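Spontaneous mutants from drug selection plates were tested by CLSI broth microdilution in MHB II with two-fold serial drug dilutions. Inoculum was about 5×10^5 CFU/mL, incubated aerobically at 35° C. for 18-20 hr. MIC was the lowest concentration inhibiting visible growth.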

The test system of assay [2] is Bacteroides spp. spontaneous mutants. Put plainly: Broth microdilution MIC of spontaneous mutants. It is filed as cell-based. As to the method: Select isolates were subcultured onto agar containing drug at the selection concentration, were identified by MALDI, and were frozen for broth microdilution MIC testing as described below.
To determine whether colonies growing on drug selection plates had elevated MIC values to the selecting antibiotic, susceptibility testing by broth microdilution was conducted on isolated mutants following methodology recommended by CLSI (1), (2), and (3) “Performance Standards for Antimicrobial Susceptibility Testing; Twenty-Eighth Informational Supplement.,” CLSI document M100-S28, 2018.
All wells in columns 2 through 12 of a standard 96-well microdilution plate (Costar 3795) were filled with 150 μL of the appropriate diluent. Then, 300 μL of the test agents were added to the wells of column 1 of the plates at […] the highest final concentration to be tested. Serial two-fold dilutions were made across the rows through column 11 using the Biomek 2000. The wells of column 12 contained no drug and served as the growth control wells. This plate served as the “mother plate” from which selected MIC assay plates or “daughter plates” were made.
Daughter plates for anaerobic organisms were transferred to a Bactron II anaerobic chamber (Sheldon Manufacturing Inc., Cornelius, Oreg.) to reduce for 1 hour prior to inoculation. The inoculum for each organism was prepared in the anaerobic chamber and dispensed into sterile disposable reservoirs. Inoculation was completed using a multichannel pipette to transfer 10 μL of the inoculum into each well of the daughter plate. This yielded a final cell concentration in the daughter plates of approximately 1×10^6 CFU/mL.

Another assay has as its system Bacteroides fragilis. Put plainly: Agar dilution MIC, 30 clinical isolates. It is filed as cell-based. The note with it: 30 Bacteroides fragilis clinical isolates. On the technique in general: Agar dilution tests growth on a series of plates holding different concentrations.
Another assay concerns Bacteroides non fragilis. Put plainly: Agar dilution MIC, 29 clinical isolates. As to conditions: 29 Bacteroides non-fragilis clinical isolates. It is filed as cell-based, Bacteroides spp.

`CN[C@H](CC(C)C)C(=O)N[C@H]1C(=O)N[C@@H](CC(N)=O)C(=O)N[C@H]2C(=O)N[C@H]3C(=O)N[C@H](C(=O)N[C@H](C(=O)O)c4cc(O)cc(O)c4-c4cc3ccc4O)[C@H](O)c3ccc(c(Cl)c3)Oc3cc2cc(c3O[C@@H]2O[C@H](CO)[C@@H](O)[C@H](O)[C@H]2O[C@H]2C[C@](C)(N)[C@H](O)[C@H](C)O2)Oc2ccc(cc2Cl)[C@H]1O` [vancomycin, Vancomycin]: the MIC is above 16 µg/mL in the assay on B. fragilis ATCC 25285 (Bacteroides fragilis, ATCC25285, read-out: MIC) and 0.25 µg/mL (≈ 0.173 µM) with S. pyogenes ATCC 49399 (Streptococcus pyogenes, ATCC49399, read-out: MIC).
Consider “piperacillin/tazobactam [piperacillin-tazobactam]”, for which the MIC came out at 8 µg/mL with B. fragilis ATCC 25285 and 0.06 µg/mL in the assay on S. pyogenes ATCC 49399.
Regarding Penicillin, the MIC in assay [1] (S. agaloctiae ATCC 13813, selected on rifaximin 4X MIC, Colony A) stood at 0.015 µg/mL; in assay [1] (S. agaloctiae ATCC 13813, selected on rifaximin 4X MIC, Colony B), 0.015 µg/mL; in assay [1] (S. agaloctiae ATCC 13813, selected on rifaximin 8X MIC, Colony A) it was 0.015 µg/mL; in assay [1] (S. agaloctiae ATCC 13813, selected on rifaximin 8X MIC, Colony B) it was 0.015 µg/mL; in assay [1] (S. agaloctiae ATCC 13813 Parent) it was 0.015 µg/mL; in assay [1] (S. pneumoniae ATCC 49619, selected on rifaximin 4X MIC, Colony A), 0.12 µg/mL. Further, the MIC worked out at 0.25 µg/mL in assay [1] (S. pneumoniae ATCC 49619, selected on rifaximin 4X MIC, Colony B); 0.25 µg/mL in assay [1] (S. pneumoniae ATCC 49619, selected on rifaximin 8X MIC, Colony A); 0.25 µg/mL in assay [1] (S. pneumoniae ATCC 49619, selected on rifaximin 8X MIC, Colony B); 0.25 µg/mL in assay [1] (S. pneumoniae ATCC 49619 Parent); 0.004 µg/mL in assay [1] (S. pyogenes ATCC 49399, selected on rifaximin 4X MIC, Colony A); 0.008 µg/mL in assay [1] (S. pyogenes ATCC 49399, selected on rifaximin 4X MIC, Colony B). Besides, the MIC amounted to 0.004 µg/mL in assay [1] (S. pyogenes ATCC 49399, selected on rifaximin 8X MIC, Colony A); 0.004 µg/mL in assay [1] (S. pyogenes ATCC 49399, selected on rifaximin 8X MIC, Colony B); 0.008 µg/mL in assay [1] (S. pyogenes ATCC 49399 Parent).
In the case of `Cc1ncc([N+](=O)[O-])n1CCO` [MTZ], the MIC was found to be 0.25 µg/mL in assay [2] (B. fragilis ATCC 25285, selected on rifaximin 4X MIC, Colony A); 0.5 µg/mL in assay [2] (B. fragilis ATCC 25285, selected on rifaximin 4X MIC, Colony B); 0.5 µg/mL in assay [2] (B. fragilis ATCC 25285, selected on rifaximin 8X MIC, Colony A); 0.25 µg/mL in assay [2] (B. fragilis ATCC 25285, selected on rifaximin 8X MIC, Colony B); 0.25 µg/mL in assay [2] (B. fragilis ATCC 25285 Parent); 2 µg/mL in assay [2] (B. ovatus MMX 3503, selected on rifaximin 4X MIC, Colony A). Further, the MIC in assay [2] (B. ovatus MMX 3503, selected on rifaximin 4X MIC, Colony B) was found to be 0.5 µg/mL; in assay [2] (B. ovatus MMX 3503, selected on rifaximin 8X MIC, Colony A), 1 µg/mL; in assay [2] (B. ovatus MMX 3503, selected on rifaximin 8X MIC, Colony B), 2 µg/mL; in assay [2] (B. ovatus MMX 3503 Parent) it was 0.5 µg/mL; in assay [2] (B. vulgatus ATCC 8482, selected on ceftriaxone 4X MIC, Colony A), 1 µg/mL; in assay [2] (B. vulgatus ATCC 8482, selected on ceftriaxone 4X MIC, Colony B), 1 µg/mL. Besides, the MIC is 1 µg/mL in assay [2] (B. vulgatus ATCC 8482, selected on rifaximin 4X MIC, Colony A); 1 µg/mL in assay [2] (B. vulgatus ATCC 8482, selected on rifaximin 4X MIC, Colony B); 1 µg/mL in assay [2] (B. vulgatus ATCC 8482, selected on rifaximin 8X MIC, Colony A); 1 µg/mL in assay [2] (B. vulgatus ATCC 8482, selected on rifaximin 8X MIC, Colony B); 1 µg/mL in assay [2] (B. vulgatus ATCC 8482 Parent (Table 50)); 1 µg/mL in assay [2] (B. vulgatus ATCC 8482 Parent (Table 54)). Besides, the “% S” value in the assay with Bacteroides fragilis is recorded as 100%; with Bacteroides non fragilis it was 97%. In addition, the MIC50 against Bacteroides fragilis is 1 µg/mL (≈ 5.84 µM); with Bacteroides non fragilis it was 0.5 µg/mL (≈ 2.92 µM). Moreover, the MIC90 against Bacteroides fragilis and with Bacteroides non fragilis was 2 µg/mL (≈ 11.7 µM) in each case. The compound further showed an MIC range in the assay on Bacteroides fragilis of 0.25 to 2 µg/mL. The Mode in the assay on Bacteroides fragilis (modal MIC) was 1 µg/mL; in the assay with Bacteroides non fragilis (modal MIC) it was 0.5 µg/mL. Also, the “% I” value with Bacteroides non fragilis was determined as 3%.
